The values that follow come from patent US8071336B2, “Antibody-based therapeutics with enhanced ADCC activity” (Genzyme Corporation, priority 2005, dated 2011).

Data set [1] relates to CHO cells expressing TEM mAb B. The experiment in a line: Batch cultures of CHO cells expressing TEM mAb B treated with kifunensine (shaker flasks). Type of data set: cell-based, Chinese hamster. The procedure:
The production of TEM mAb B from batch cultures treated with various amounts of kifunensine or untreated was evaluated. CHO cells in shaker flasks were treated with 0, 0.5, 1, 1.5, or 2 μg/ml in a single or three additions (4 days apart) and cultured for 11 days. Cell viability (using trypan blue) and cell counts were assessed at least every other day.

Data set [2] concerns Hybridoma cells expressing TEM mAb A. The experiment in a line: N-glycans of TEM mAb A from inhibitor-treated hybridoma cells (MALDI-TOF MS). Type of data set: cell-based. The conditions noted are these: 20 μg/ml mannostatin A, 0.5 mM NB-DNJ, or 2 μg/ml kifunensine at days 0 and 2. On the procedure:
Hybridoma cells expressing TEM mAb A, an antibody against a tumor vascular associated antigen, were grown in medium containing 1% fetal bovine serum with low IgG (Invitrogen Corp.), 5 μg/ml bovine insulin, 5 μg/ml human transferrin, 0.01 mM ethanolamine and 25 nM sodium selenite. Cells were treated once with the following inhibitors: 20 μg/ml mannostatin A, and 0.5 mM NB-DNJ for 4 days; and twice with 2 μg/ml kifunensine at days 0 and 2; or cultured without inhibitors (“control”).
N-linked glycans from antibodies purified as described in Example 1 were released with PNGase F. After filtration through 10 kDa filters, the filtrates were treated with Dowex AG-50 (H^+), AG501, and […] sequentially. Aliquots of samples were applied to a target, followed by sDHB matrix. The MALDI-TOF mass spectra were acquired using a Voyager-DE PRO Biospectrometry Workstation (Applied Biosystems, Foster City, Calif., USA) in the positive-ion and reflective mode.

The subject of data set [3] is CHO cell clone expressing TEM mAb A. The data set can be described thus: Titration of kifunensine concentration, N-glycans of TEM mAb A (MALDI-TOF MS). The conditions noted are these: for glycan structures of the expressed antibody: 11 days. Type of data set: cell-based, Chinese hamster. On the procedure: To investigate the impact of mixed oligomannose and complex-type glycans on antibody function, cells expressing TEM mAb A were treated with various amounts of kifunensine. In the first experiment, a CHO cell clone expressing TEM mAb A was treated with 0, 4, 20, 100, 500 and 2500 ng/ml of kifunensine for 11 days. The medium was harvested, and the antibody was purified using a protein A column. Fractions containing protein peaks were pooled and dialyzed into PBS. A second titration experiment was performed with a narrower range of kifunensine concentration, specifically, from 20 to 100 ng/ml. After treatment for 11 days, 50 ml of medium from each treatment condition was harvested, and the antibody was purified. Peak-containing fractions were pooled, buffer-exchanged into PBS using Centricon® filters with repeated centrifugation. Aliquots of TEM mAb A antibody samples were applied to a 4-12% NuPAGE and stained with Coomassie blue to confirm purity. The amount of fucosylated and non-fucosylated glycans in antibodies from each kifunensine treatment in the second titration experiment was estimated by calculating the area of each individual glycan peak in MALDI-TOF MS spectra.

The conditions of data set [4]: after removal of most of the galactose residues; cited from earlier work.
For data set [5] the following is noted: after removal of most of the galactose residues; cited from earlier work. This is another data set of the same source.

Where only a bound is given, the exact number is not on record here.

Turning to `O=C1N[C@@H]2[C@@H](O)[C@@H](O)[C@H](O)[C@@H](CO)N2C1=O` [kifunensine], the “Xvmax (viable cells at day of peak cell density)” value in data set [1] (0.5 μg/ml kif sup. 3x (three additions), 11 days) was 3.5 ×10^6 cells; in data set [1] (0.5 μg/ml kif, single addition, 11 days), 3.5 ×10^6 cells; in data set [1] (1 μg/ml kif sup. 3x (three additions), 11 days) it was 1.6 ×10^6 cells; in data set [1] (1 μg/ml kif, single addition, 11 days), 2.7 ×10^6 cells; in data set [1] (1.5 μg/ml kif sup. 3x (three additions), 11 days), 1.6 ×10^6 cells; in data set [1] (1.5 μg/ml kif, single addition, 11 days), 3.8 ×10^6 cells. Also, the “Xvmax (viable cells at day of peak cell density)” value was 1.7 ×10^6 cells in data set [1] (2 μg/ml kif sup. 3x (three additions), 11 days) and 2.1 ×10^6 cells in data set [1] (2 μg/ml kif, single addition, 11 days). Besides, the “cell viability (trypan blue)” value in data set [1] (FIG. 10A, 0 to 2 μg/ml kifunensine, 1 or 3 additions, 11 days) is listed as “comparable”. The cell density result is given as “lower” in data set [1] (FIG. 10B, kifunensine-treated vs untreated cells) and “much lower cell density” in data set [1] (three additions of kifunensine vs untreated control or single treatment). For the same compound, the “glycan structures of the expressed antibody” value is recorded as “enough to result in the production of oligomannose-type structures” in data set [1] (single kifunensine treatment at 0.5 μg/ml), “only a small amount of oligomannose structures (Man5/Man6)” in data set [3] (20 ng/ml kifunensine) and “complete oligomannose structures” in data set [3] (100 ng/ml kifunensine). Besides, the “effect on glycosylation of the expressed antibody” value in data set [2] was “more effective in blocking the glycosylation to complex-type structures than NB-DNJ”. Further, the “non-fucosylated glycans of the expressed antibody” value in data set [3] (60 ng/ml or higher kifunensine, estimated from MALDI-TOF MS peak areas) is greater than 80%.
Regarding Campath®: a humanized mAb IgG1, the complement lysis activity entry in data set [4] is “reduced complement lysis activity”. Besides, in data set [5], the ADCC entry is “no effect on ADCC”.
With `CCCCN1C[C@H](O)[C@@H](O)[C@H](O)[C@H]1CO` [NB-DNJ, N-butyl-DNJ], in data set [2], the “effect on glycosylation of the expressed antibody” value is “significant amounts of Glc1Man9GlcGNAc2 (Man9Glc)”.
On the same count and under the same terms, the same measure for `CS[C@@H]1[C@@H](N)[C@@H](O)[C@@H](O)[C@H]1O` [mannostatin A]: “No alteration in glycosylation”.
